Experimental data taken from paper PMC12203311, “Design, synthesis, in silico and in vitro evaluation of pyrrole–indole hybrids as dual tubulin and aromatase inhibitors with potent anticancer activities” (RSC Advances, 2025).

How the values were obtained:
[1] = system: L929 normal mouse fibroblast cell line; assay: Cytotoxicity MTT assay, L929; type: cell-based; conditions: IC50 (L929)/IC50 (T47D)
In short: (§1)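 Read-out is absorbance at 570 nm of DMSO-solubilised formazan after a 3-hour incubation with 0.5 mg mL^−1 MTT. Percent viability is relative to vehicle (DMSO).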

[2] = Cytotoxicity MTT assay, L929; type: cell-based, mouse; conditions: mouse, L929 fibroblast cells; MTT, 48 hours
In short: as §1

M14 = assay: NCI60 five-dose screen; type: cell-based; conditions: Homo sapiens, M14, melanoma; for CC50: read-out: LC50 (the source's name)
SW-620 = assay: NCI60 five-dose screen; type: cell-based; conditions: Homo sapiens, SW-620, colon cancer; for CC50: read-out: LC50 (the source's name)
MDA-MB-468 = assay: NCI60 five-dose screen; type: cell-based; conditions: Homo sapiens, MDA-MB-468, breast cancer; for CC50: read-out: LC50 (the source's name)
A498 = assay: NCI60 five-dose screen; type: cell-based; conditions: Homo sapiens, A498, renal cancer; for CC50: read-out: LC50 (the source's name)
Human CYP19 (aromatase) = biological target: T1, Human CYP19 (aromatase) (Homo sapiens, UniProt P11511); assay: Aromatase inhibition assay (DBF fluorometric substrate); type: biochemical; conditions: active defined as IC50 < 12.5 µM
T1 construct: purchased GENTEST, Woburn, MA 456260; host or cells: baculovirus/insect cells
T1 sequence (P11511 1-503): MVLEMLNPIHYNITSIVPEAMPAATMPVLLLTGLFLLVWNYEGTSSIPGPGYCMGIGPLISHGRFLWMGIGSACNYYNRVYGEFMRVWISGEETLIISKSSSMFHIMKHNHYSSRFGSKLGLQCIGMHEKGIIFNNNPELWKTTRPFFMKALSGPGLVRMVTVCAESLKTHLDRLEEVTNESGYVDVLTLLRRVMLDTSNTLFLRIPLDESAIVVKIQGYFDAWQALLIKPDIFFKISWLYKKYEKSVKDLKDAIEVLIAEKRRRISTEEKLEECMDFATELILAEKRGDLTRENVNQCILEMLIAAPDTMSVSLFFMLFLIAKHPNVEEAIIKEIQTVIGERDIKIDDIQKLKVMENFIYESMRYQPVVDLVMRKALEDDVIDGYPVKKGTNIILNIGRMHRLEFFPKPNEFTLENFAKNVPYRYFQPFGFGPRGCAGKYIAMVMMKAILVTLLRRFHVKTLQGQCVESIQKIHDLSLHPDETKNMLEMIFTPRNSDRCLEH
In short: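 Insect-cell-expressed human CYP19 Supersomes with oxidoreductase turned over DBF for 30 min at 37 °C after a 10 min 37 °C pre-incubation with cofactor. NaOH quench; product measured by fluorescence, excitation 490 nm, emission 530 nm.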

UO-31 = assay: NCI60 five-dose screen; type: cell-based; conditions: Homo sapiens, UO-31, renal cancer; for CC50: read-out: LC50 (the source's name)
[3] = system: T47D breast cancer cell line; assay: Cytotoxicity MTT assay, T47D; type: cell-based, human; conditions: Homo sapiens, T47D; MTT, 48 hours
In short: as §1

HCT-116 = assay: NCI60 five-dose screen; type: cell-based; conditions: Homo sapiens, HCT-116, colon cancer; for CC50: read-out: LC50 (the source's name)
SF-268 = assay: NCI60 five-dose screen; type: cell-based; conditions: Homo sapiens, SF-268, CNS cancer; for CC50: read-out: LC50 (the source's name)
NCI-H226 = assay: NCI60 five-dose screen; type: cell-based; conditions: Homo sapiens, NCI-H226, NSC lung cancer; for CC50: read-out: LC50 (the source's name)
HCC-2998 = assay: NCI60 five-dose screen; type: cell-based; conditions: Homo sapiens, HCC-2998, colon cancer; for CC50: read-out: LC50 (the source's name)
HS 578T = assay: NCI60 five-dose screen; type: cell-based; conditions: Homo sapiens, breast cancer; for CC50: read-out: LC50 (the source's name)
T-47D = assay: NCI60 five-dose screen; type: cell-based; conditions: Homo sapiens, T47D, breast cancer; for CC50: read-out: LC50 (the source's name)
RXF 393 = assay: NCI60 five-dose screen; type: cell-based; conditions: Homo sapiens, RXF 393, renal cancer; for CC50: read-out: LC50 (the source's name)
786-0 = assay: NCI60 five-dose screen; type: cell-based; conditions: Homo sapiens, 786-0, renal cancer; for CC50: read-out: LC50 (the source's name)
OVCAR-5 = assay: NCI60 five-dose screen; type: cell-based; conditions: Homo sapiens, OVCAR-5, ovarian cancer; for CC50: read-out: LC50 (the source's name)
NCI-H322M = assay: NCI60 five-dose screen; type: cell-based; conditions: Homo sapiens, NSC lung cancer; for CC50: read-out: LC50 (the source's name)
MOLT-4 = assay: NCI60 five-dose screen; type: cell-based; conditions: Homo sapiens, MOLT-4, leukemia; for CC50: read-out: LC50 (the source's name)
MDA-MB-435 = assay: NCI60 five-dose screen; type: cell-based, human; conditions: Homo sapiens; for CC50: MDA-MB-435, MDA-MB-435, melanoma, read-out: LC50 (the source's name); for GI50: MDA-MB-435, melanoma
KM12 = assay: NCI60 five-dose screen; type: cell-based; conditions: Homo sapiens, KM12, colon cancer; for CC50: read-out: LC50 (the source's name)

Compound: CCc1ccc(/C=N/NC(=O)c2[nH]c3ccc(Br)cc3c2-c2ccccc2)[nH]1 [Derivative 3s, (E)-5-Bromo-N′-((5-ethyl-1H-pyrrol-2-yl)methylene)-3-phenyl-1H-indole-2-carbohydrazide]
- Selectivity index (SI) [1]: 5.13
- IC50 at 48 h [2]: 19.5 ± 11.8 µM
- GI50 (M14): 0.318 µM
- CC50 (M14): 38.7 µM
- GI50 (SW-620): 0.558 µM
- CC50 (SW-620): 43.2 µM
- GI50 (MDA-MB-468): 0.248 µM
- CC50 (MDA-MB-468): 25.9 µM
- GI50 (A498): 5.59 µM
- CC50 (A498): 47.2 µM
- IC50 (Human CYP19 (aromatase)): 4.6 ± 0.5 µM
- GI50 (UO-31): 0.644 µM
- CC50 (UO-31): 59.9 µM
- IC50 [3]: 3.8 ± 1 µM
- GI50 (HCT-116): 0.325 µM
- CC50 (HCT-116): 31.9 µM
- GI50 (SF-268): 1.47 µM
- CC50 (SF-268): 83 µM
- GI50 (NCI-H226): 0.506 µM
- CC50 (NCI-H226): 32.3 µM
- GI50 (HCC-2998): 1.45 µM
- CC50 (HCC-2998): 35.1 µM
- GI50 (HS 578T): 0.294 µM
- CC50 (HS 578T): > 100 µM
- GI50 (T-47D): 0.681 µM
- CC50 (T-47D): 52.7 µM
- GI50 (RXF 393): 0.194 µM
- CC50 (RXF 393): 28.9 µM
- GI50 (786-0): 0.801 µM
- CC50 (786-0): 47.4 µM
- GI50 (OVCAR-5): 0.573 µM
- CC50 (OVCAR-5): 38.7 µM
- GI50 (NCI-H322M): 1.73 µM
- CC50 (NCI-H322M): 64.6 µM
- GI50 (MOLT-4): 0.464 µM
- CC50 (MOLT-4): > 100 µM
- CC50 (MDA-MB-435): 34 µM
- GI50 (MDA-MB-435): 0.227 µM
- GI50 (KM12): 0.289 µM
- CC50 (KM12): 37.5 µM

Compound: CCc1c[nH]c(/C=N/NC(=O)c2[nH]c3ccc(Br)cc3c2-c2ccccc2)c1 [Derivative 3t, (E)-5-Bromo-N′-((4-ethyl-1H-pyrrol-2-yl)methylene)-3-phenyl-1H-indole-2-carbohydrazide]
- Selectivity index (SI) [1]: 1.54
- IC50 at 48 h [2]: 7.1 ± 3.6 µM
- GI50 (M14): 0.337 µM
- CC50 (M14): 38.4 µM
- GI50 (SW-620): 0.431 µM
- CC50 (SW-620): 42.5 µM
- GI50 (MDA-MB-468): 0.263 µM
- CC50 (MDA-MB-468): 9.22 µM
- GI50 (A498): 13.7 µM
- CC50 (A498): 54.5 µM
- IC50 (Human CYP19 (aromatase)): 4.7 ± 0.5 µM
- GI50 (UO-31): 1 µM
- CC50 (UO-31): 40.7 µM
- IC50 [3]: 4.6 ± 2.9 µM
- GI50 (HCT-116): 0.385 µM
- CC50 (HCT-116): 40.3 µM
- GI50 (SF-268): 0.861 µM
- CC50 (SF-268): 51.9 µM
- GI50 (NCI-H226): 0.33 µM
- CC50 (NCI-H226): 28 µM
- GI50 (HCC-2998): 0.342 µM
- CC50 (HCC-2998): 30.4 µM
- GI50 (HS 578T): 0.3 µM
- CC50 (HS 578T): 87.3 µM
- GI50 (T-47D): 1.59 µM
- CC50 (T-47D): 39.3 µM
- GI50 (RXF 393): 0.217 µM
- CC50 (RXF 393): 21 µM
- GI50 (786-0): 0.646 µM
- CC50 (786-0): 38.5 µM
- GI50 (OVCAR-5): 0.337 µM
- CC50 (OVCAR-5): 37.2 µM
- GI50 (NCI-H322M): 2.31 µM
- CC50 (NCI-H322M): 49.8 µM
- GI50 (MOLT-4): 0.399 µM
- CC50 (MOLT-4): 94.2 µM
- CC50 (MDA-MB-435): 38.7 µM
- GI50 (MDA-MB-435): 0.23 µM
- GI50 (KM12): 0.325 µM
- CC50 (KM12): 34.4 µM

Compound: CCc1cc[nH]c1/C=N/NC(=O)c1[nH]c2ccc(Br)cc2c1-c1ccccc1 [Derivative 3u, (E)-5-Bromo-N′-((3-ethyl-1H-pyrrol-2-yl)methylene)-3-phenyl-1H-indole-2-carbohydrazide]
- Selectivity index (SI) [1]: 1.97
- IC50 at 48 h [2]: 12.2 ± 0.7 µM
- GI50 (M14): 1.62 µM
- CC50 (M14): 23.7 µM
- GI50 (SW-620): 3.82 µM
- CC50 (SW-620): 43.3 µM
- GI50 (MDA-MB-468): 2.72 µM
- CC50 (MDA-MB-468): 32.1 µM
- GI50 (A498): 1.45 µM
- CC50 (A498): 55.4 µM
- IC50 (Human CYP19 (aromatase)): 9.6 ± 1 µM
- GI50 (UO-31): 2.94 µM
- CC50 (UO-31): 39.7 µM
- IC50 [3]: 6.2 ± 3.6 µM
- GI50 (HCT-116): 2.5 µM
- CC50 (HCT-116): 44 µM
- GI50 (SF-268): 2.86 µM
- CC50 (SF-268): 42.7 µM
- GI50 (NCI-H226): 1.97 µM
- CC50 (NCI-H226): 37.7 µM
- GI50 (HCC-2998): 4.11 µM
- CC50 (HCC-2998): 42.4 µM
- GI50 (HS 578T): 3.6 µM
- CC50 (HS 578T): 61.8 µM
- GI50 (T-47D): 2.17 µM
- CC50 (T-47D): 41.9 µM
- GI50 (RXF 393): 1.19 µM
- CC50 (RXF 393): 18.7 µM
- GI50 (786-0): 3.51 µM
- CC50 (786-0): 44.3 µM
- GI50 (OVCAR-5): 6.77 µM
- CC50 (OVCAR-5): 45.4 µM
- GI50 (NCI-H322M): 3.93 µM
- CC50 (NCI-H322M): 43.4 µM
- GI50 (MOLT-4): 2.37 µM
- CC50 (MOLT-4): 55.1 µM
- CC50 (MDA-MB-435): 41.6 µM
- GI50 (MDA-MB-435): 4.12 µM
- GI50 (KM12): 3.17 µM
- CC50 (KM12): 42.3 µM
